Results on 3 compounds are retold here after publication PMC13622972 (Antiviral research, 2022).

Positions of bridges follow the written chain, without caps; N, C: chain ends. Residues, ends and D or L forms follow the SMILES beside them.

The test system of assay [1] is pseudotyped Vesicular stomatitis virus (VSV). It counts as cell-based.
Assay [2] concerns wild type Ebola virus Zaire. The settings on record: 36 h.
Assay [3] deals with pseudotyped Marburg virus (MARV).
For assay [4], the system named is pseudotyped Ebola virus (EBOV).

Regarding `CC(C)[C@@H]1NC(=O)[C@H](Cc2ccccc2)NC(=O)[C@H](Cc2ccccc2)NC(=O)[C@H](CC(=O)O)NC(=O)[C@H](CC(=O)O)NC(=O)CNC(=O)[C@H](CCCCN)NC(=O)[C@@H](NC(=O)[C@@H](N)Cc2c[nH]cn2)CSSC[C@@H](C(=O)N[C@@H](Cc2ccc(O)cc2)C(=O)O)NC(=O)[C@H](C)NC(=O)[C@H](Cc2ccc(O)cc2)NC1=O` [erp1c, HCKGDDFFVYACY] (H-HCKGDDFFVYACY-OH; disulfide 2-12 (inferred); N-terminus and C-terminus assumed), the “Activity against the pseudotyped VSV virus” value (“Activity” for short) in assay [1] is reported as “no activities”. Further, the IC50 – broadly, the concentration needed to halve the response being measured – in assay [2] turned out to be 10.5 µM; in assay [3], 28.5 µM; in assay [4], 12.3 µM.
Turning to `C[C@@H](O)[C@@H]1NC(=O)CNC(=O)[C@@H](N)CSSC[C@@H](C(=O)O)NC(=O)[C@H](Cc2ccc(O)cc2)NC(=O)[C@H](Cc2ccc(O)cc2)NC(=O)[C@H](Cc2ccc(O)cc2)NC(=O)[C@H](Cc2ccccc2)NC1=O` [m78abc, CGTFYYYC] (H-CGTFYYYC-OH; disulfide 1-8 (inferred); N-terminus and C-terminus assumed), the “Activity” value in assay [1] is “no activities”. In addition, the figures for the IC50 in assay [3] and in assay [4] were 12.5 µM and 16.1 µM, respectively.
In the case of `CC(C)[C@@H]1NC(=O)[C@H](Cc2ccccc2)NC(=O)CNC(=O)[C@H](CO)NC(=O)[C@@H](N)CSSC[C@@H](C(=O)O)NC(=O)[C@H](Cc2c[nH]c3ccccc23)NC(=O)[C@H](CCC(=O)O)NC1=O` [m191abc, CSGFVEWC] (H-CSGFVEWC-OH; disulfide 1-8 (inferred); N-terminus and C-terminus assumed), in assay [1], the “Activity” value is listed as “no activities”. Further, the IC50 amounted to 8.5 µM in assay [3] and 37.2 µM in assay [4].
